Laboratory results from patent publication US9278121B2, “Methods of use for an antimicrobial peptide” (priority 2013, dated 2016).
Values after ≈ are worked out from the molar mass of the structure shown. Where two headings read alike, the source gives them in different places. Where a SMILES comes first, the peptide text is derived from it.

What was measured:
[1] = test system: P. aeruginosa (ATCC19660)
P. acnes [2] = settings: background, literature; cited from earlier work
P. acnes [3] = experiment: MIC test by microdilution assay against P. acnes; type: cell-based, Propionibacterium acnes
[4] = test system: P. aeruginosa derived from patient specimens
[5] = test system: human keratinocytes (HK cells)
in vitro = settings: human, HK cells (human keratinocytes)
P. acnes [6] = experiment: P. acnes-induced inflammatory response in ICR mouse ears; type: in vivo; settings: ICR mice
Description: Right ears of ICR mice (Harlan, Indianapolis, Ind.) were intradermally injected with P. acnes (1×10^8 CFU per 20 μl in Phosphate-Buffered Saline (PBS)) with or without HPA3NT3 peptide (6.4 μM). Left ears of the same mice were injected with 20 μl of PBS. In negative control ICR mice, right ears remained untreated while left ears received intradermal injections of PBS. For histological observation, the cross-sectioned ear was stained with hematoxylin and eosin (Sigma) and viewed on a Zeiss Axioskop2 plus microscope (Carl Zeiss) 24 to 48 hours after injection. The increase in ear thickness was measured using a micro caliper (Mitutoyo 547-400S; MSI Viking Gage, Charleston, S.C.) prior to, and at 24, 48, and 72 hours post injection. The percent difference in ear thickness (right vs. left ear) was determined by an induced ear inflammation ratio (percent difference in the experimental ear divided by the percent difference in the control ears). Ten milligrams of tissue from an 8 mm biopsy that was punched from ears at 24 hours after P. acnes injection was homogenized in 250 μl of sterile PBS with a tissue grinder. CFUs of P. acnes were determined by plating serial dilutions of the homogenate on an agar plate under anaerobic conditions for 48 hours.

S. aureus = experiment: microbe, parasite or virus in culture; settings: Staphylococcus aureus
[7] = test system: P. aeruginosa derived from patient specimens; experiment: microbe, parasite or virus in culture; settings: Pseudomonas aeruginosa, read-out: MIC against P. aeruginosa
M. furfur = experiment: MIC microdilution assay against M. furfur
IL-8 = IL-8 mRNA in P. aeruginosa-infected human corneal epithelial cells; type: cell-based; settings: HCET cells
Description: Human corneal epithelial cells (HCET cells) were exposed to 2×10^4 CFU/mL tympanitis-derived P. aeruginosa either in the presence or absence of antimicrobial peptides. Specifically, HP(2-20) and its derivatives HPA3NT3, ISFGW, and F1AF8A were added to samples at concentration of 3.2 μM. Moreover, a cathilocidin-derived peptide (P5) was also added to some conditions at a concentration of 1.6 μM.

[8] = Cutibacterium acnes, strain ATCC6919, read-out: MIC against P. acnes
[9] = Cutibacterium acnes, strain ATCC11828, read-out: MIC against P. acnes
[10] = clinical isolate Patient #1 (tympanitis)
[11] = clinical isolate Patient #2 (tympanitis)

SMILES: CC(C)C[C@H](NC(=O)[C@H](CCCCN)NC(=O)[C@H](CCCCN)NC(=O)[C@H](CC(C)C)NC(=O)[C@H](CC(C)C)NC(=O)[C@H](CCCCN)NC(=O)[C@H](CCCCN)NC(=O)[C@H](CC(C)C)NC(=O)[C@H](CC(C)C)NC(=O)[C@@H]1CCCN1C(=O)[C@H](CCCCN)NC(=O)[C@H](CCCCN)NC(=O)[C@H](CC(C)C)NC(=O)[C@H](CC(C)C)NC(=O)[C@H](CCCCN)NC(=O)[C@H](CCCCN)NC(=O)[C@H](Cc1c[nH]c2ccccc12)NC(=O)[C@@H](N)CCCCN)C(N)=O [p5] (H-KWKKLLKKPLLKKLLKKL-NH2; N-terminus and C-terminus assumed)
- MIC against P. aeruginosa (ATCC19660) [1]: 0.78 µM (≈ 1.75 µg/mL)

SMILES: O=C(OOC(=O)c1ccccc1)c1ccccc1 [Benzoyl Peroxide, benzoyl peroxide]
- minimal inhibitory concentration (MIC) (P. acnes [2]): 150 µg/mL (≈ 619 µM)
- MIC (P. acnes [3]; [8]): 125 µM (≈ 30.3 µg/mL)
- MIC (P. acnes [3]; [9]): 62.5 µM (≈ 15.1 µg/mL)
- MIC (P. acnes [3]; Cutibacterium acnes, text summary of Table 1A, strain not named, read-out: MIC value against P. acnes): 62.5 µM (≈ 15.1 µg/mL)

SMILES: CC[C@H](C)[C@H](NC(=O)[C@H](CCCCN)NC(=O)[C@H](CCC(=O)O)NC(=O)[C@H](CCCCN)NC(=O)[C@H](CO)NC(=O)[C@H](CCCCN)NC(=O)[C@H](CCCNC(=N)N)NC(=O)[C@H](Cc1ccccc1)NC(=O)[C@H](Cc1ccccc1)NC(=O)[C@H](CC(=O)O)NC(=O)CNC(=O)[C@H](CC(C)C)NC(=O)[C@@H](N)CC(C)C)C(=O)NCC(=O)N[C@@H](CCCCN)C(=O)N[C@@H](CCC(=O)O)C(=O)N[C@@H](Cc1ccccc1)C(=O)N[C@@H](CCCCN)C(=O)N[C@@H](CCCNC(=N)N)C(=O)N[C@H](C(=O)N[C@H](C(=O)N[C@@H](CCC(N)=O)C(=O)N[C@@H](CCCNC(=N)N)C(=O)N[C@H](C(=O)N[C@@H](CCCCN)C(=O)N[C@@H](CC(=O)O)C(=O)N[C@@H](Cc1ccccc1)C(=O)N[C@@H](CC(C)C)C(=O)N[C@@H](CCCNC(=N)N)C(=O)N[C@@H](CC(N)=O)C(=O)N[C@@H](CC(C)C)C(=O)N[C@H](C(=O)N1CCC[C@H]1C(=O)N[C@@H](CCCNC(=N)N)C(=O)N[C@H](C(=O)N[C@@H](CCC(=O)O)C(=O)N[C@@H](CO)C(=O)O)[C@@H](C)O)C(C)C)[C@@H](C)CC)C(C)C)[C@@H](C)CC [LL37]
- MIC against P. aeruginosa [4, 10]: >32 µg/mL
- MIC against P. aeruginosa [4, 11]: >32 µg/mL

SMILES: CC[C@H](C)[C@H](NC(=O)CN)C(=O)NCC(=O)N[C@@H](C)C(=O)N[C@H](C(=O)N[C@@H](CC(C)C)C(=O)N[C@@H](CCCCN)C(=O)N[C@H](C(=O)N[C@@H](CC(C)C)C(=O)N[C@H](C(=O)N[C@H](C(=O)NCC(=O)N[C@@H](CC(C)C)C(=O)N1CCC[C@H]1C(=O)N[C@@H](C)C(=O)N[C@@H](CC(C)C)C(=O)N[C@H](C(=O)N[C@@H](CO)C(=O)N[C@@H](Cc1c[nH]c2ccccc12)C(=O)N[C@H](C(=O)N[C@@H](CCCCN)C(=O)N[C@@H](CCCNC(=N)N)C(=O)N[C@@H](CCCCN)C(=O)N[C@@H](CCCNC(=N)N)C(=O)N[C@@H](CCC(N)=O)C(=O)N[C@@H](CCC(N)=O)C(N)=O)[C@@H](C)CC)[C@@H](C)CC)[C@@H](C)O)[C@@H](C)O)C(C)C)C(C)C [Melittin]
- MIC against P. aeruginosa [4, 10]: 8 µg/mL (≈ 2.81 µM)
- MIC against P. aeruginosa [4, 11]: 16 µg/mL (≈ 5.62 µM)

SMILES: CC[C@H](C)[C@H](NC(=O)[C@H](CCCCN)NC(=O)[C@H](CCCCN)NC(=O)[C@H](Cc1ccccc1)NC(=O)[C@H](CC(C)C)NC(=O)[C@H](CCCCN)NC(=O)[C@H](CCCCN)NC(=O)[C@H](CC(C)C)NC(=O)[C@H](CCCNC(=N)N)NC(=O)[C@H](CCCCN)NC(=O)[C@@H](N)Cc1ccccc1)C(=O)N[C@@H](Cc1c[nH]c2ccccc12)C(=O)N[C@@H](CC(N)=O)C(=O)N[C@@H](Cc1c[nH]c2ccccc12)C(=O)N[C@@H](CCCCN)C(=O)O [HPA3NT3] (H-FKRLKKLFKKIWNWK-OH)
- MIC against P. aeruginosa ([4]; derived from patient specimens): 16 µg/mL (≈ 7.75 µM)
- Cell viability [5]: 100%
- cytotoxicity to HK cells [5]: only minimal cytotoxicity
- viability at 24 h, 1.6 µM (in vitro): 100%
- viability at 24 h, 3.2 µM (in vitro): 100%
- viability at 24 h, 6.4 µM (in vitro): 100%
- ear thickness or inflammation, peptide alone (histology) (P. acnes [6]): did not affect ear thickness or inflammation
- erythema or ear swelling, peptide in uninfected ears (P. acnes [6]): no significant changes

SMILES: CCC[C@@H]1C[C@@H](C(=O)N[C@@H]([C@H]2O[C@H](SC)[C@H](O)[C@@H](O)[C@H]2O)[C@H](C)Cl)N(C)C1 [Clindamycin, clindamycin]
- MIC (S. aureus; ATCC8096, read-out: MIC against S. aureus): > 50 µM
- MIC (S. aureus; ATCC25923, read-out: MIC against S. aureus): > 50 µM
- MIC (S. aureus; ATCC29213, read-out: MIC against S. aureus): > 50 µM
- MIC (P. acnes [3]; [8]): < 0.2 µM
- MIC (P. acnes [3]; [9]): < 0.2 µM

SMILES: CC(C)(O/N=C(\C(=O)N[C@@H]1C(=O)N2C(C(=O)[O-])=C(C[n+]3ccccc3)CS[C@H]12)c1csc(N)n1)C(=O)O [Ceftazidime, ceftazidime]
- MIC [7]: > 32 µg/mL
- MIC against P. aeruginosa [4, 11]: >32 µg/mL

SMILES: CC[C@H](C)[C@H](NC(=O)[C@H](CCCCN)NC(=O)[C@H](CO)NC(=O)[C@H](Cc1ccccc1)NC(=O)[C@H](CC(C)C)NC(=O)[C@H](CCCCN)NC(=O)[C@H](CCC(=O)O)NC(=O)[C@H](CC(C)C)NC(=O)[C@H](CCCNC(=N)N)NC(=O)[C@H](CCCCN)NC(=O)[C@H](Cc1ccccc1)NC(=O)[C@@H](NC(=O)[C@H](CCCCN)NC(=O)[C@H](CCCCN)NC(=O)[C@H](C)N)C(C)C)C(=O)N[C@@H](CCC(N)=O)C(=O)N[C@@H](CC(N)=O)C(=O)N[C@@H](CC(=O)O)C(=O)N[C@@H](CCCCN)C(N)=O [HP(2-20)] (H-AKKVFKRLEKLFSKIQNDK-NH2; N-terminus and C-terminus assumed)
- MIC against M. furfur (M. furfur): < 0.195 µM
- P. aeruginosa infection induced IL-8 expression (mRNA) (IL-8; 3.2 μM, 24 hours): significantly inhibited
- expression of IL-8, peptide without P. aeruginosa (IL-8; data not shown): did not impact the expression of IL-8
- MIC (P. acnes [3]; text summary of Table 1A, strain not named, read-out: MIC value against P. acnes): 0.8 µM (≈ 1.86 µg/mL)

SMILES: CC[C@H](C)[C@H](NC(=O)CNC(=O)[C@@H](NC(=O)[C@H](CCCCN)NC(=O)[C@H](CCCCN)NC(=O)[C@H](Cc1ccccc1)NC(=O)[C@H](CC(C)C)NC(=O)[C@H](CCCCN)NC(=O)[C@H](Cc1c[nH]c2ccccc12)NC(=O)[C@@H](N)CCCCN)[C@@H](C)CC)C(=O)NCC(=O)N[C@@H](CCCCN)C(=O)N[C@@H](Cc1ccccc1)C(=O)N[C@@H](CC(C)C)C(=O)N[C@@H](Cc1c[nH]cn1)C(=O)N[C@@H](CO)C(=O)N[C@@H](C)C(=O)N[C@@H](CCCCN)C(=O)N[C@@H](CCCCN)C(=O)N[C@@H](Cc1ccccc1)C(N)=O [CA-MA] (H-KWKLFKKIGIGKFLHSAKKF-NH2)
- MIC against P. aeruginosa (ATCC19660) [1]: 1.562 µM (≈ 3.76 µg/mL)

SMILES: CN[C@H](CC(C)C)C(=O)N[C@H]1C(=O)N[C@@H](CC(N)=O)C(=O)N[C@H]2C(=O)N[C@H]3C(=O)N[C@H](C(=O)N[C@H](C(=O)O)c4cc(O)cc(O)c4-c4cc3ccc4O)[C@H](O)c3ccc(c(Cl)c3)Oc3cc2cc(c3O[C@@H]2O[C@H](CO)[C@@H](O)[C@H](O)[C@H]2O[C@H]2C[C@](C)(N)[C@H](O)[C@H](C)O2)Oc2ccc(cc2Cl)[C@H]1O [Vancomycin, vancomycin]
- MIC [7]: > 32 µg/mL
- MIC against P. aeruginosa [4, 11]: >32 µg/mL
